Assay results as given in ChEMBL document CHEMBL3046480, “Synthesis of damnacanthal, a naturally occurring 9,10-anthraquinone and its analogues, and its biological evaluation against five cancer cell lines” (Med Chem Res, 2013).
Calls of active or inactive are those of the source. The rule behind the calls is not given here.

Test system: MES-SA
Test: Cytotoxicity against Homo sapiens (human) MES-SA cells assessed as inhibition of cell survival after 96 hr by MTT assay
Type: functional, cell-based
Conditions: mes-sa

Compound | IC50
CCOCc1c(O)cc2c(c1OC)C(=O)c1ccccc1C2=O | Not Active
COc1c(C=O)c(O)c(Br)c2c1C(=O)c1ccccc1C2=O | Not Active
O=C1c2ccccc2C(=O)c2c(O)cc(Br)cc21 | Not Active
O=C1c2ccccc2C(=O)c2cc(Br)c(O)cc21 | Not Active
Cc1ccc(O)c2c1C(=O)c1ccccc1C2=O | Not Active
COc1cc2c(c(OC)c1C)C(=O)c1ccccc1C2=O | Not Active
COc1c(C)c(OC(C)=O)cc2c1C(=O)c1ccccc1C2=O | Not Active
O=C1c2ccccc2C(=O)c2c(O)ccc(O)c21 [QUINIZARIN] | Not Active
COc1ccc2c(c1)C(=O)c1ccccc1C2=O [2-METHOXYANTHRAQUINONE] | Not Active
COc1ccc(OC)c2c1C(=O)c1ccccc1C2=O [1,4-DIMETHOXYANTHRAQUINONE] | Not Active
CC(=O)Oc1cc2c(c(O)c1C)C(=O)c1ccccc1C2=O | Not Active
O=C1c2ccccc2C(=O)c2c(O)cccc21 [1-HYDROXYANTHRAQUINONE] | Not Active
COc1c(CBr)c(OC(C)=O)cc2c1C(=O)c1ccccc1C2=O | Not Active

Test system: not listed separately
Test: Antioxidant activity measured after 3 min by ferric thiocyanate method
Type: functional
Conditions: not given

Compound | Activity
CCOCc1c(O)cc2c(c1OC)C(=O)c1ccccc1C2=O | inactive
COc1c(C=O)c(O)c(Br)c2c1C(=O)c1ccccc1C2=O | inactive
VITAMIN E | Active
O=C1c2ccccc2C(=O)c2c(O)cc(Br)cc21 | inactive
O=C1c2ccccc2C(=O)c2cc(Br)c(O)cc21 | inactive
Cc1ccc(O)c2c1C(=O)c1ccccc1C2=O | inactive
COc1cc2c(c(OC)c1C)C(=O)c1ccccc1C2=O | inactive
COc1c(C)c(OC(C)=O)cc2c1C(=O)c1ccccc1C2=O | inactive
O=C1c2ccccc2C(=O)c2c(O)ccc(O)c21 [QUINIZARIN] | inactive
COc1ccc2c(c1)C(=O)c1ccccc1C2=O [2-METHOXYANTHRAQUINONE] | inactive
Cc1cc(C(C)(C)C)c(O)c(C(C)(C)C)c1 | Active
COc1ccc(OC)c2c1C(=O)c1ccccc1C2=O [1,4-DIMETHOXYANTHRAQUINONE] | inactive
CC(=O)Oc1cc2c(c(O)c1C)C(=O)c1ccccc1C2=O | inactive
O=C1c2ccccc2C(=O)c2c(O)cccc21 [1-HYDROXYANTHRAQUINONE] | inactive
COc1c(CBr)c(OC(C)=O)cc2c1C(=O)c1ccccc1C2=O | inactive
O=C1c2ccccc2C(=O)c2c1ccc(O)c2O | Active

Test system: DU-145
Test: Cytotoxicity against Homo sapiens (human) DU145 cells assessed as inhibition of cell survival after 96 hr by MTT assay
Type: functional, cell-based
Conditions: Homo sapiens, DU-145, 96 h; read-out: IC50

Compound | IC50 [µM]
CCOCc1c(O)cc2c(c1OC)C(=O)c1ccccc1C2=O | 50
COc1c(C=O)c(O)c(Br)c2c1C(=O)c1ccccc1C2=O | 34
COc1c(C)c(OC(C)=O)cc2c1C(=O)c1ccccc1C2=O | 27
COc1ccc2c(c1)C(=O)c1ccccc1C2=O [2-METHOXYANTHRAQUINONE] | 70
COc1ccc(OC)c2c1C(=O)c1ccccc1C2=O [1,4-DIMETHOXYANTHRAQUINONE] | 69
CC(=O)Oc1cc2c(c(O)c1C)C(=O)c1ccccc1C2=O | 37
COc1c(CBr)c(OC(C)=O)cc2c1C(=O)c1ccccc1C2=O | 5

Same assay, conditions: du-145

Compound | IC50
O=C1c2ccccc2C(=O)c2c(O)cc(Br)cc21 | Not Active
O=C1c2ccccc2C(=O)c2cc(Br)c(O)cc21 | Not Active
Cc1ccc(O)c2c1C(=O)c1ccccc1C2=O | Not Active
COc1cc2c(c(OC)c1C)C(=O)c1ccccc1C2=O | Not Active
O=C1c2ccccc2C(=O)c2c(O)ccc(O)c21 [QUINIZARIN] | Not Active
O=C1c2ccccc2C(=O)c2c(O)cccc21 [1-HYDROXYANTHRAQUINONE] | Not Active

Test system: not listed separately
Test: Cytotoxicity against Homo sapiens (human) MES-SA/Dx5 cells assessed as inhibition of cell survival after 96 hr by MTT assay
Type: functional, cell-based
Conditions: mes-sa/dx5

Compound | IC50
CCOCc1c(O)cc2c(c1OC)C(=O)c1ccccc1C2=O | Not Active
COc1c(C=O)c(O)c(Br)c2c1C(=O)c1ccccc1C2=O | Not Active
O=C1c2ccccc2C(=O)c2c(O)cc(Br)cc21 | Not Active
O=C1c2ccccc2C(=O)c2cc(Br)c(O)cc21 | Not Active
Cc1ccc(O)c2c1C(=O)c1ccccc1C2=O | Not Active
COc1cc2c(c(OC)c1C)C(=O)c1ccccc1C2=O | Not Active
COc1c(C)c(OC(C)=O)cc2c1C(=O)c1ccccc1C2=O | Not Active
O=C1c2ccccc2C(=O)c2c(O)ccc(O)c21 [QUINIZARIN] | Not Active
COc1ccc2c(c1)C(=O)c1ccccc1C2=O [2-METHOXYANTHRAQUINONE] | Not Active
COc1ccc(OC)c2c1C(=O)c1ccccc1C2=O [1,4-DIMETHOXYANTHRAQUINONE] | Not Active
CC(=O)Oc1cc2c(c(O)c1C)C(=O)c1ccccc1C2=O | Not Active
O=C1c2ccccc2C(=O)c2c(O)cccc21 [1-HYDROXYANTHRAQUINONE] | Not Active
COc1c(CBr)c(OC(C)=O)cc2c1C(=O)c1ccccc1C2=O | Not Active

Test system: MCF7
Test: Cytotoxicity against Homo sapiens (human) MCF7 cells assessed as inhibition of cell survival after 96 hr by MTT assay
Type: functional, cell-based
Conditions: Homo sapiens, MCF7, 96 h; read-out: IC50

Compound | IC50 [µM]
CCOCc1c(O)cc2c(c1OC)C(=O)c1ccccc1C2=O | 35
COc1c(C=O)c(O)c(Br)c2c1C(=O)c1ccccc1C2=O | 19
COc1c(C)c(OC(C)=O)cc2c1C(=O)c1ccccc1C2=O | 26
COc1ccc2c(c1)C(=O)c1ccccc1C2=O [2-METHOXYANTHRAQUINONE] | 68
COc1ccc(OC)c2c1C(=O)c1ccccc1C2=O [1,4-DIMETHOXYANTHRAQUINONE] | 70
CC(=O)Oc1cc2c(c(O)c1C)C(=O)c1ccccc1C2=O | 56
COc1c(CBr)c(OC(C)=O)cc2c1C(=O)c1ccccc1C2=O | 6

Same assay, conditions: mcf7

Compound | IC50
O=C1c2ccccc2C(=O)c2c(O)cc(Br)cc21 | Not Active
O=C1c2ccccc2C(=O)c2cc(Br)c(O)cc21 | Not Active
Cc1ccc(O)c2c1C(=O)c1ccccc1C2=O | Not Active
COc1cc2c(c(OC)c1C)C(=O)c1ccccc1C2=O | Not Active
O=C1c2ccccc2C(=O)c2c(O)ccc(O)c21 [QUINIZARIN] | Not Active
O=C1c2ccccc2C(=O)c2c(O)cccc21 [1-HYDROXYANTHRAQUINONE] | Not Active

Test system: not listed separately
Test: Antioxidant activity measured after 10 min by thiobarbituric acid method
Type: functional
Conditions: not given

Compound | Activity
O=C1c2ccccc2C(=O)c2c1ccc(O)c2O | Active

Test system: not listed separately
Test: Cytotoxicity against Homo sapiens (human) H460 cells assessed as inhibition of cell survival after 96 hr by MTT assay
Type: functional, cell-based, NCI-H460
Conditions: Homo sapiens, NCI-H460, 96 h; read-out: IC50

Compound | IC50 [µM]
COc1c(C=O)c(O)c(Br)c2c1C(=O)c1ccccc1C2=O | 32
COc1ccc2c(c1)C(=O)c1ccccc1C2=O [2-METHOXYANTHRAQUINONE] | 68
COc1ccc(OC)c2c1C(=O)c1ccccc1C2=O [1,4-DIMETHOXYANTHRAQUINONE] | 71
CC(=O)Oc1cc2c(c(O)c1C)C(=O)c1ccccc1C2=O | 68
COc1c(CBr)c(OC(C)=O)cc2c1C(=O)c1ccccc1C2=O | 26

Same assay, conditions: nci-h460

Compound | IC50
CCOCc1c(O)cc2c(c1OC)C(=O)c1ccccc1C2=O | Not Active
O=C1c2ccccc2C(=O)c2c(O)cc(Br)cc21 | Not Active
O=C1c2ccccc2C(=O)c2cc(Br)c(O)cc21 | Not Active
Cc1ccc(O)c2c1C(=O)c1ccccc1C2=O | Not Active
COc1cc2c(c(OC)c1C)C(=O)c1ccccc1C2=O | Not Active
COc1c(C)c(OC(C)=O)cc2c1C(=O)c1ccccc1C2=O | Not Active
O=C1c2ccccc2C(=O)c2c(O)ccc(O)c21 [QUINIZARIN] | Not Active
O=C1c2ccccc2C(=O)c2c(O)cccc21 [1-HYDROXYANTHRAQUINONE] | Not Active
